Measured values: US20210369684A1 (MOUNT TAM THERAPEUTICS, INC., priority 2018, published 2021)
Where “and” joins values, the source holds several entries; their conditions need not be identical. Identical values can stand only once.

Test: Brain concentrations after IP administration to mice (LC-MS/MS)
Type: in vivo, mouse
Details: for Formula II Concentrations in Mouse Brain / Formula II Concentrations in Mouse Brain, Mean: Day 3, 24.0 h
Experimental: To carry out these assays using brain homogenates, 20 uL of samples and matrix calibration standards into wells of a 96-well plate, and 10 uL of blank matrix allocated for matrix blanks and control blanks. 160 uL internal standard was then added to all samples except matrix blanks, and 160 uL ACN added to matrix blanks. Samples were then vortexed for 5 minutes and centrifuge for 5 minutes at >3500 rpm. 150 uL of the supernatant was then transferred to a new 96-well plate, and the plates blown down to dryness at 35° C., reconstituted with 90 uL of 70:30 water:acetonitrile (ACN) solution, covered and vortexed prior to analysis. LC and MS conditions were the same as described above for the whole blood analysis. […] The compound of Formula II was administered to mice at 2 mg/kg or 10 mg/kg for three days and the concentration of the compound in brain determined.

Q: For `CO[C@H]1C[C@@H]2CC[C@@H](C)[C@@](O)(C2)C(=O)C(=O)N2CCCC[C@H]2C(=O)O[C@H]([C@H](C)C[C@H]2C[C@H]3C[C@@H]2C[C@@H]3O)CC(=O)[C@H](C)/C=C(\C)[C@@H](O)[C@@H](OC)C(=O)[C@H](C)C[C@H](C)/C=C/C=C/C=C/1C` [Formula II, C37-[(1R,2S,4R,5S)-5-hyhroxybicyclo[2.2.1]heptane] rapamycin], which “concentrations in brain over time (in words)” value (2 mg/kg or 10 mg/kg IP QD for three days, mice) is on record?
A: sufficient concentrations in brain overtime

Q: And the “Formula II Concentrations in Mouse Brain” value (Group 1, 2 mg/kg IP QD x 3 days, individual animals 7, 8, 9)?
A: 33.7 ng/g and 27.6 ng/g and 31.4 ng/g

Q: And the “Formula II Concentrations in Mouse Brain, Mean” value (Group 1, 2 mg/kg IP QD x 3 days)?
A: 30.9 ng/g

Q: What about the “Formula II Concentrations in Mouse Brain” value (Group 2, 10 mg/kg IP QD x 3 days, individual animals 10, 11, 12) of the same molecule?
A: 121 ng/g and 136 ng/g and 224 ng/g

Q: What about the “Formula II Concentrations in Mouse Brain, Mean” value (Group 2, 10 mg/kg IP QD x 3 days) of the same molecule?
A: 160 ng/g
